Data taken from paper PMC10810133, “Exploring the inhibitory potential of in silico-designed small peptides on Helicobacter pylori Hp0231 (DsbK), a periplasmic oxidoreductase involved in disulfide bond formation” (Frontiers in Molecular Biosciences, 2024).
Entries after “also recorded” stand apart in the source; their conditions may differ. Like-named read-outs stand apart in the source and are kept apart here. Residues, ends and D or L forms follow the SMILES beside them.

Experiments:
Hp0231APHA = target: T1, Hp0231APHA (Helicobacter pylori, UniProt O25017, C159A/C162A); test: Microscale thermophoresis (MST) binding of inhibitory peptides to Hp0231APHA (inactive form)
T1 sequence (O25017 1-265 C159A/C162A): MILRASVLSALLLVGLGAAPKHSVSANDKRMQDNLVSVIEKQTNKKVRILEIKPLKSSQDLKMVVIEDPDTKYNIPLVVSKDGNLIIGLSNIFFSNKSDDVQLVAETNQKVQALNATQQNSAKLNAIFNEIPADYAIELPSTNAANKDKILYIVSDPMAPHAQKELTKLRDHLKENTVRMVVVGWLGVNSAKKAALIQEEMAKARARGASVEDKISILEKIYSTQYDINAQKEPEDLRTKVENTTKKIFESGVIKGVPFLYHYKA

Hp0231 [1] = target: T2, Hp0231 (Helicobacter pylori, UniProt O25017); test: biochemical
T2 sequence (O25017 entry or part of it): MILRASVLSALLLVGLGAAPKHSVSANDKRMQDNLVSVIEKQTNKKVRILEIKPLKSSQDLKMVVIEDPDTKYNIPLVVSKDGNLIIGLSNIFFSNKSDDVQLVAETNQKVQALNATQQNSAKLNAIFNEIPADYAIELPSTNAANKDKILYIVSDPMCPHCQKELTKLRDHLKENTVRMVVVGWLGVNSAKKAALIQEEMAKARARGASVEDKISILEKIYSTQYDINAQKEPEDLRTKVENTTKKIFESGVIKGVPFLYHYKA
Protocol: 2.3.7 Assessment of interactions between inhibitory peptides and Hp0231 or Hp0231APHA using microscale thermophoresis
The purified Hp0231 and Hp0231APHA proteins were suspended in HEPES buffer (20 mM HEPES, 150 mM NaCl, 0.05% (v/v) TWEEN 20, pH 7.4). Protein concentrations were determined by absorption measurements at 280 nm, using the extinction coefficients ε280 = 16,055 M^−1 × cm^−1 for Hp0231 and ε280 = 15,930 M^−1 × cm^−1 for Hp0231APHA, calculated using Quest Calculate™ Protein Concentration Calculator (AAT BioQuest, https://www.aatbio.com/tools/calculate-protein-concentration). After adjusting their concentrations to 200 nM, Hp0231 and Hp0231APHA were labeled using a Monolith His-Tag Labeling Kit RED-tris-NTA (NanoTemper Technologies) according to the manufacturer’s instructions. […] To assess binding interactions between the Hp0231/Hp0231APHA proteins and the inhibitory peptides, MST measurements were performed using a NanoTemper ® Monolith NT.115 instrument (NanoTemper Technologies). Samples were prepared according to the manufacturer’s instructions and loaded in Premium coated capillaries (NanoTemper Technologies). Measurements were performed using MO.Control v1.6.1 (NanoTemper Technologies) software. Medium and high MST power were applied at 25°C. The results were analyzed using MO.Affinity Analysis v2.3 (NanoTemper Technologies) and Origin 2019 (OriginLab Corporation). At least three independent measurements were performed for each sample.

Hp0231 [2] = target: T2, Hp0231; test: Peptide inhibitory activity assay (time-resolved Eu3+ fluorescence peptide oxidation assay); assay type: biochemical; conditions: 160 nM Hp0231, […] GSSG, 8 µM substrate S1 or S2, pH 5.5
Protocol: The peptide oxidation assay was performed as described previously ([Vivian et al., 2009]; [Kurth et al., 2014]) with slight modification. Briefly, peptide substrates (S1—[…]; S2—[…]) with DOTA (1,4,7,10-tetraazacycclododecane-1,4,7,10-tetraacetic acid) coupled at the N-terminus, and a methylcoumarin amide coupled to the Ɛ-amino group of the C-terminal lysine, were custom synthesized by Eurogentec. The lyophilized peptides were resuspended in 100 mM imidazole (pH 6.0) to a concentration of 2 mM. Freshly prepared 100 mM europium trifluoromethanesulfonate (Eu^3+) solution was added to each peptide at a final concentration of 4 mM and the mixtures incubated for 5 min at room temperature to permit Eu^3+ chelation. Eu^3+ was complexed with DOTA in order to facilitate observation of the oxidation rate of cysteine residues in the substrate peptide, leading to the formation of a disulfide bond. This process brings the methylcoumarin antenna into close contact with the DOTA-Eu^3+ fluorophore, resulting in an increase in Eu^3+ fluorescence. Thus, fluorescence could be used to monitor the capacity of Hp0231 or Hp0231APHA to catalyze disulfide bond formation.
Assays were conducted using an Infinite® M Nano + plate reader (Tecan) with an excitation wavelength of 340 nm and emission wavelength 615 nm. There was a 150 µs delay before reading and time-resolved fluorescence was measured over a period of 100 µs. The assay was performed in white 384-well plates (Perkin Elmer, OptiPlate-384). Each well contained 50 μL, which included the reaction buffer consisting of 50 mM MES, 50 mM NaCl, 2 mM EDTA (pH 5.5), 160 nM protein (either Hp0231 or Hp0231APHA), 1.6 mM GSSG (oxidized glutathione) and 8 µM substrate peptide which was added last to initiate the reaction. Three control reactions were included in each experiment: 1) reaction buffer, GSSG and a protein; 2) reaction buffer and substrate peptide; 3) reaction buffer, substrate peptide and GSSG. Measurements were made for three replicate samples and mean values are presented, with the standard error of the mean indicated by error bars. […]

E. coli DsbA = tested on: E. coli DsbA; design: method as in Duprez et al. (2015); conditions: ref Duprez et al. (2015); cited from earlier work
[3] = MST, pseudo-titration mode, 25°C, Hp0231, mean of three experiments ± S.D., NB = not binding
[4] = MST, pseudo-titration mode, 25°C, Hp0231APHA (CPHC to APHA, inactive), NB = not binding
[5] = MST, pseudo-titration mode, 25°C, Hp0231APHA (CPHC to APHA, inactive), NB = not binding, read-out: K D

**Q.** Which Kd (Hp0231APHA) does the source give for `CC(=O)N[C@@H](Cc1c[nH]cn1)C(=O)N[C@@H](CCC(N)=O)C(=O)N[C@@H](CO)C(=O)N[C@@H](CS)C(=O)N[C@@H](C)C(=O)N[C@@H](CS)C(=O)N[C@@H](CCC(=O)O)C(=O)N[C@@H](CC(C)C)C(N)=O` [WAW8] (Ac-HQSCACEL-NH2) here?
**A.** 1.3 ± 0.2 µM

**Q.** What about the “K D” value (Hp0231 [1]; [3]) of the same molecule?
**A.** two binding affinities (low and high)

**Q.** And the “Inhibition of Hp0231-catalyzed oxidation of substrate peptides (Eu3+ fluorescence increase)” value (“Inhibition … (Eu3+ fluorescence increase)” for short) (Hp0231 [2]; inhibitory peptide 0.75 mM)?
**A.** the reaction rate was significantly reduced

**Q.** Which “K D” value (Hp0231APHA; [4]) does the source give for Ac-HQSCAYEL-NH2 [WAW7] here?
**A.** no interaction

**Q.** What about the Kd (Hp0231APHA; [5]) of the same molecule?
**A.** > 1000 µM

**Q.** And the Kd (Hp0231 [1])?
**A.** 112 ± 21 µM

**Q.** And the “K D” value (Hp0231 [1]; [3])?
**A.** low affinity

**Q.** What about the “Inhibition … (Eu3+ fluorescence increase)” value (Hp0231 [2]; inhibitory peptide 1 mM) of the same molecule?
**A.** inhibition of the fluorescence intensity increase

**Q.** Which Kd (E. coli DsbA) does the source give for PSPFATCDF here?
**A.** 4 µM

**Q.** For Ac-HQSALYEL-NH2 [WAW6], which “K D” value (Hp0231APHA; [4]) is on record?
**A.** did not bind; also recorded: no binding

**Q.** And the Kd (Hp0231APHA; [5])?
**A.** > 1000 µM

**Q.** What about the Kd (Hp0231 [1]; [3]) of the same molecule?
**A.** > 1000 µM

**Q.** And the “Inhibition … (Eu3+ fluorescence increase)” value (Hp0231 [2]; inhibitory peptide 1 mM)?
**A.** did not yield a significant alteration in the fluorescence intensity
